Results published in US4087432A, “1H-imidazo(4,5-b)pyridine compounds” (Eli Lilly and Company, priority 1975, dated 1978).
Several values for one entry are separate records, joined by “and”; a condition that tells them apart may be missing. Equal values may be shown once.

Key:
[1] = system: Corn; experiment: Preemergent injury rating, corn; format: in vivo; parameters: key: injury rating scale on which 4 = death
Experimental: (§1) Various of the compounds to be employed as active agent in accordance with the present invention were evaluated for preemergent application to various species of plants. In this evaluation, a soil was prepared consisting of one part masonry sand and one part shredded top soil blended together in a cement mixer. One gallon of this soil was placed in a 25 × 35 cm. galvanized flat and was patted down with a bench brush until level. A three-row marker was used to make 21/2 cm. deep furrows in approximately two-fifths of the flat. Crop seeds consisting of four kernels of corn, five cotton seeds and five soybean seeds were placed in these furrows. A four-row template was then placed on the remaining soil and the indicated approximate numbers of each of the following seeds were planted, one species to each section: foxtail (millet), 80-100 seeds; velvetleaf (40-50 seeds); rough pigweed (150-250 seeds); and large crabgrass (100-150 seeds).
(§2) Sufficient soil was added to cover the entire flat. Thus, the weed seeds were covered to a depth of about 6 mm. and the crop seeds were covered to a depth of about 3 cm.
(§3) In assaying the effect of the composition as preemergent herbicides, a flat prepared as above, taken either on the day of planting or on the next day, was placed in a chamber equipped with a turntable and an air exhaust. The herbicidal composition, either a spray-type emulsion or a wettable powder, was applied to the flat with a modified DeVilbiss atomizer hooked to an air source. Twelve and one-half milliliters of the composition under test were applied to each flat either on the day of planting or the succeeding day. Injury ratings and observations as to type of injury were made eleven to twelve days after treatment. The injury rating scale used was as follows:
(§4) 4--death When more than one determination was carried out at a given rate, an average value was calculated for the injury rating. Each compound evaluated was formulated as a spray by one of the following procedures. In one method the particular compound was wetted by grinding in a mortar with one part of polyoxyethylene sorbitan monolaurate. Five hundred parts of water were added slowly to the resultant creamy paste to give an aqueous dispersion with a surfactant concentration of 0.2 percent. This dispersion was entirely satisfactory for spray application. In a second procedure the compound was dissolved in one volume of acetone, and the acetone solution was diluted with nineteen volumes of water containing 0.1 percent of polyoxyethylene sorbitan monolaurate.
(§5) In the following table setting forth the results of the evaluation, column 1 gives the name of the compound under test; column 2, the rate in pounds per acre at which the compound was applied to the test flat; and the remaining columns, the injury to the particular plant seeds or seedlings as measured by the foregoing scale.

[2] = system: Soybean; experiment: Preemergent injury rating, soybean; format: in vivo; parameters: key: injury rating scale on which 4 = death
Experimental: as §1, §2, §3, §4, §5

[3] = system: Velvet Leaf; experiment: Preemergent injury rating, velvetleaf; format: in vivo; parameters: key: injury rating scale on which 4 = death
Experimental: as §1, §2, §3, §4, §5

[4] = system: Pigweed; experiment: Preemergent injury rating, pigweed; format: in vivo, rough pigweed; parameters: key: injury rating scale on which 4 = death
Experimental: as §1, §2, §3, §4, §5

[5] = system: Crabgrass; experiment: Preemergent injury rating, crabgrass; format: in vivo, large crabgrass; parameters: key: injury rating scale on which 4 = death
Experimental: as §1, §2, §3, §4, §5

[6] = system: Foxtail; experiment: Preemergent injury rating, foxtail; format: in vivo, foxtail (millet); parameters: key: injury rating scale on which 4 = death
Experimental: as §1, §2, §3, §4, §5

[7] = system: Cotton; experiment: Preemergent injury rating, cotton; format: in vivo; parameters: key: injury rating scale on which 4 = death
Experimental: as §1, §2, §3, §4, §5

[8] = system: Foxtail Millet; experiment: General herbicidal effect alone/in combination, foxtail millet; format: in vivo; parameters: key: 0-10 scale: 0 = no injury, 10 = death; details: alone
Experimental: as §1, §2, §3, §4
(§6) 6-Chloro-1-hydroxy-2-(trifluoromethyl)-1H-imidazo(4,5-b)pyridine was evaluated in combination with 2-chloro-4-ethylamino-6-isopropylamino-s-triazine and separately in combination with 2-chloro-2',6'-diethyl-N-(methoxymethyl)acetanilide for the control of plants. The evaluations were conducted as described in Examples 49-52, except that the rates of compound differed and the species were different. General herbicidal effect was rated on a scale of 0-10, with 0 = no injury and 10 = death. Observations were also made for the following other specific phytotoxic effects.

[9] = system: Morning glory; experiment: General herbicidal effect alone/in combination, morning glory; format: in vivo; parameters: key: 0-10 scale: 0 = no injury, 10 = death; details: alone
Experimental: as §1, §2, §3, §4, §6

[10] = system: Pigweed; experiment: General herbicidal effect alone/in combination, pigweed; format: in vivo; parameters: key: 0-10 scale: 0 = no injury, 10 = death; details: alone
Experimental: as §1, §2, §3, §4, §6

[11] = system: Velvet Leaf; experiment: General herbicidal effect alone/in combination, velvetleaf; format: in vivo; parameters: key: 0-10 scale: 0 = no injury, 10 = death; details: alone
Experimental: as §1, §2, §3, §4, §6

[12] = system: Ragweed; experiment: General herbicidal effect alone/in combination, ragweed; format: in vivo; parameters: key: 0-10 scale: 0 = no injury, 10 = death; details: alone
Experimental: as §1, §2, §3, §4, §6

[13] = system: Rice; experiment: General herbicidal effect alone/in combination, rice; format: in vivo; parameters: key: 0-10 scale: 0 = no injury, 10 = death; details: alone
Experimental: as §1, §2, §3, §4, §6

[14] = system: Sorghum; experiment: General herbicidal effect alone/in combination, sorghum; format: in vivo; parameters: key: 0-10 scale: 0 = no injury, 10 = death; details: alone
Experimental: as §1, §2, §3, §4, §6

[15] = system: Jimsonweed; experiment: General herbicidal effect alone/in combination, jimsonweed; format: in vivo; parameters: key: 0-10 scale: 0 = no injury, 10 = death; details: alone
Experimental: as §1, §2, §3, §4, §6

[16] = system: Corn; experiment: General herbicidal effect alone/in combination, corn (first Corn column); format: in vivo; parameters: key: 0-10 scale: 0 = no injury, 10 = death; details: alone
Experimental: as §1, §2, §3, §4, §6

[17] = system: Large Crabgrass; experiment: General herbicidal effect alone/in combination, large crabgrass; format: in vivo; parameters: key: 0-10 scale: 0 = no injury, 10 = death; details: alone, 1.0 lbs/A; listed as A
Experimental: as §1, §2, §3, §4, §6

[18] = system: Lambs Quarter; experiment: General herbicidal effect alone/in combination, lambsquarter; format: in vivo; parameters: key: 0-10 scale: 0 = no injury, 10 = death; details: alone, listed as A
Experimental: as §1, §2, §3, §4, §6

[19] = system: Corn; experiment: General herbicidal effect alone/in combination, corn (second Corn column); format: in vivo; parameters: key: 0-10 scale: 0 = no injury, 10 = death; details: alone
Experimental: as §1, §2, §3, §4, §6

[20] = system: Barnyard Grass; experiment: General herbicidal effect alone/in combination, barnyard grass; format: in vivo; parameters: key: 0-10 scale: 0 = no injury, 10 = death; details: alone
Experimental: as §1, §2, §3, §4, §6

[21] = system: Pigweed; experiment: Postemergent injury rating, pigweed; format: in vivo, rough pigweed; parameters: key: injury rating scale, 4 = death
Experimental: as §1, §2, §3, §4
(§7) Representative compounds of the present invention were evaluated for postemergent application to plants including corn and several weed species. The evaluation was carried out in accordance with the procedures of Examples 49-52 except that the test solutions were applied about 9-12 days after the preparation and seeding of the flats.

[22] = system: Corn; experiment: Postemergent injury rating, corn; format: in vivo; parameters: key: injury rating scale, 4 = death
Experimental: as §1, §2, §3, §4, §7

[23] = system: Foxtail; experiment: Postemergent injury rating, foxtail; format: in vivo, foxtail (millet); parameters: key: injury rating scale, 4 = death
Experimental: as §1, §2, §3, §4, §7

[24] = system: Crabgrass; experiment: Postemergent injury rating, crabgrass; format: in vivo, large crabgrass; parameters: key: injury rating scale, 4 = death
Experimental: as §1, §2, §3, §4, §7

On1c(C(F)(F)C(F)F)nc2nc(Cl)c(Cl)cc21 [1-hydroxy-5,6-dichloro-2-(1,1,2,2-tetrafluoroethyl)-1H-imidazo(4,5-b)pyridine]
2BS: Injury Rating, Crabgrass ([5]; 4 lbs/acre)
2B: Injury Rating, Crabgrass ([5]; 8 lbs/acre)
1S: Injury Rating, Pigweed ([4]; 1 lbs/acre) | Injury Rating, Foxtail ([6]; 8 lbs/acre)
1BS: Injury Rating, Crabgrass ([5]; 2 lbs/acre) | Injury Rating, Foxtail ([6]; 4 lbs/acre)
3BS: Injury Rating, Pigweed ([4]; 2 lbs/acre) | Injury Rating, Pigweed ([4]; 4 lbs/acre) | Injury Rating, Pigweed ([4]; 8 lbs/acre)
3B: Injury Rating, Velvet Leaf ([3]; 8 lbs/acre)
1B: Injury Rating, Soybean ([2]; 4 lbs/acre) | Injury Rating, Velvet Leaf ([3]; 2 lbs/acre) | Injury Rating, Velvet Leaf ([3]; 4 lbs/acre)
0: Injury Rating, Corn ([1]; 1 lbs/acre) | Injury Rating, Corn ([1]; 2 lbs/acre) | Injury Rating, Corn ([1]; 4 lbs/acre) | Injury Rating, Corn ([1]; 8 lbs/acre) | Injury Rating, Soybean ([2]; 1 lbs/acre) | Injury Rating, Soybean ([2]; 2 lbs/acre) | Injury Rating, Velvet Leaf ([3]; 1 lbs/acre) | Injury Rating, Crabgrass ([5]; 1 lbs/acre) | Injury Rating, Foxtail ([6]; 1 lbs/acre) | Injury Rating, Foxtail ([6]; 2 lbs/acre) | Injury Rating, Cotton ([7]; 1 lbs/acre) | Injury Rating, Cotton ([7]; 2 lbs/acre) | Injury Rating, Cotton ([7]; 4 lbs/acre)

On1c(C(F)(F)F)nc2nc(Cl)ccc21 [5-chloro-1-hydroxy-2-(trifluoromethyl)-1H-imidazo(4,5-b)pyridine]
1: Injury Rating, Corn ([1]; 8 lbs/acre)
0: Injury Rating, Corn ([1]; 2 lbs/acre) | Injury Rating, Soybean ([2]; 2 lbs/acre) | Injury Rating, Cotton ([7]; 2 lbs/acre)
3: Injury Rating, Pigweed ([4]; 2 lbs/acre) | Injury Rating, Pigweed ([4]; 8 lbs/acre) | Injury Rating, Crabgrass ([5]; 2 lbs/acre) | Injury Rating, Crabgrass ([5]; 8 lbs/acre)
4: Injury Rating, Foxtail ([6]; 8 lbs/acre)
2: Injury Rating, Foxtail ([6]; 2 lbs/acre)

On1c(C(F)(F)F)nc2ncc(Cl)cc21 [6-chloro-1-hydroxy-2-(trifluoromethyl)-1H-imidazo(4,5-b)pyridine]
4B and 2B: herbicidal effect, Jimsonweed ([15]; 0.25 lbs/A, listed as A)
2: Injury Rating, Velvet Leaf ([3]; 1 lbs/acre) | Injury Rating, Cotton ([7]; 8 lbs/acre)
9BS and 8BS: herbicidal effect, Lambs Quarter ([18]; 2.0 lbs/A)
4: Injury Rating, Velvet Leaf ([3]; 2 lbs/acre) | Injury Rating, Velvet Leaf ([3]; 4 lbs/acre) | Injury Rating, Pigweed ([4]; 1 lbs/acre) | Injury Rating, Pigweed ([4]; 2 lbs/acre) | Injury Rating, Pigweed ([4]; 4 lbs/acre) | Injury Rating, Pigweed ([4]; 8 lbs/acre) | Injury Rating, Crabgrass ([5]; 1 lbs/acre) | Injury Rating, Crabgrass ([5]; 4 lbs/acre) | Injury Rating, Crabgrass ([5]; 8 lbs/acre)
2S: herbicidal effect, Foxtail Millet ([8]; 0.5 lbs/A)
9SB and 6SB: herbicidal effect, Lambs Quarter ([18]; 1.0 lbs/A)
1: Injury Rating, Corn ([1]; 4 lbs/acre) | Injury Rating, Corn ([1]; 8 lbs/acre) | Injury Rating, Soybean ([2]; 8 lbs/acre)
0: Injury Rating, Corn ([1]; 1 lbs/acre) | Injury Rating, Corn ([1]; 2 lbs/acre) | Injury Rating, Soybean ([2]; 1 lbs/acre) | Injury Rating, Soybean ([2]; 2 lbs/acre) | Injury Rating, Soybean ([2]; 4 lbs/acre) | herbicidal effect, Foxtail Millet ([8]; 0.25 lbs/A) | herbicidal effect, Pigweed ([10]; 0.25 lbs/A) | herbicidal effect, Velvet leaf ([11]; 0.25 lbs/A) | herbicidal effect, Rice ([13]; 0.25 lbs/A) | herbicidal effect, Sorghum ([14]; 0.25 lbs/A) | herbicidal effect, Corn ([16]; 0.25 lbs/A) | herbicidal effect, Corn ([16]; 0.5 lbs/A) | herbicidal effect, Corn ([16]; 1.0 lbs/A) | Injury Rating, Cotton ([7]; 1 lbs/acre) | Injury Rating, Cotton ([7]; 2 lbs/acre) | Injury Rating, Cotton ([7]; 4 lbs/acre) | herbicidal effect, Corn ([19]; 0.25 lbs/A) | herbicidal effect, Corn ([19]; 0.5 lbs/A) | herbicidal effect, Corn ([19]; 1.0 lbs/A) | herbicidal effect, Barnyard Grass ([20]; 0.25 lbs/A)
3S and 2S: herbicidal effect, Large Crabgrass [17] | herbicidal effect, Barnyard Grass ([20]; 1.0 lbs/A, listed as A)
3B: herbicidal effect, Rice ([13]; 0.5 lbs/A)
8BS and 5BS: herbicidal effect, Jimsonweed ([15]; 0.5 lbs/A, listed as A)
10D: herbicidal effect, Foxtail Millet ([8]; 2.0 lbs/A) | herbicidal effect, Morning glory ([9]; 0.5 lbs/A) | herbicidal effect, Morning glory ([9]; 2.0 lbs/A) | herbicidal effect, Sorghum ([14]; 2.0 lbs/A)
3: Injury Rating, Velvet Leaf ([3]; 8 lbs/acre) | Injury Rating, Crabgrass ([5]; 2 lbs/acre) | Injury Rating, Foxtail ([6]; 1 lbs/acre) | Injury Rating, Foxtail ([6]; 2 lbs/acre) | Injury Rating, Foxtail ([6]; 4 lbs/acre) | Injury Rating, Foxtail ([6]; 8 lbs/acre)
8BS: herbicidal effect, Ragweed ([12]; 1.0 lbs/A) | herbicidal effect, Sorghum ([14]; 1.0 lbs/A)
9BS: herbicidal effect, Jimsonweed ([15]; 1.0 lbs/A) | herbicidal effect, Jimsonweed ([15]; 2.0 lbs/A) | herbicidal effect, Barnyard Grass ([20]; 2.0 lbs/A)
2S and 3S: herbicidal effect, Pigweed ([10]; 0.5 lbs/A, listed as A) | herbicidal effect, Velvet leaf ([11]; 0.5 lbs/A, listed as A) | herbicidal effect, Ragweed ([12]; 0.25 lbs/A, listed as A)

On1c(C(F)(F)F)nc2nccc(Cl)c21 [7-chloro-1-hydroxy-2-(trifluoromethyl)-1H-imidazo(4,5-b)pyridine]
0: Injury Rating, Corn ([22]; 4 lbs/acre)
2: Injury Rating, Crabgrass ([24]; 8 lbs/acre)
3: Injury Rating, Pigweed ([21]; 4 lbs/acre) | Injury Rating, Pigweed ([21]; 8 lbs/acre) | Injury Rating, Foxtail ([23]; 8 lbs/acre)
1: Injury Rating, Corn ([22]; 8 lbs/acre) | Injury Rating, Foxtail ([23]; 4 lbs/acre) | Injury Rating, Crabgrass ([24]; 4 lbs/acre)
